The subject of series [1] is carrageenan monoarthritis. Nature of the series: Rat carrageenan test (carrageenan monoarthritis, pain score). It counts as in vivo. The note with it: oral, 80 μmol/kg. The method, then:
The compounds used according to the invention when given by systemic administration to mice or rats, specifically reduce pain in the rat carrageenan test as described by Tonussi and Ferreira (Pain 1992, 48, 421-427).
Description of the Rat Carrageenan Test
Experimental procedures. Under isoflurane anesthesia, 40 μL of carrageenan (7.5 mg/mL) was injected into the left tibio-tarsal (ankle) joint from the dorsal side. The injection causes a localized inflammation increasing to a maximum between 4 h to 6 h after induction, after which it gradually decreases, and the animals display decreased weight bearing on and guarding of the limb.
(2R)-2-{[5-Chloro-4-(1H-pyrazol-5-ylamino)pyrimidin-2-yl]amino}-2-(4-fluorophenyl)ethanol was administered 30 min before induction of monoarthritis. The rats were placed in an acrylic chamber and videotaped for 5 min from underneath, 2 h, 2 h30, 3 h, 3 h30, 5 h after drug administration. Subsequently, the weight the rats were willing to put on the injected paw was scored as described in the table below, and defined as the “Pain Score”: […]
Data analysis. Two Way Repeated Measures ANOVA (one factor repetition) followed by Newmans-Keuls method for all pairwise multiple comparison procedures (SigmaStat® 2.03) was used to evaluate group effects. The level of significance was set at p<0.05.

Series [2] has as its system mechanical hypersensitivity. The note with it: injected into rats with pancreatite; cited from earlier work.
A further series concerns the target T1, human TrkB kinase (Homo sapiens, UniProt Q16620).
T1 construct: The intracellular domain of a HIS-tagged human TrkB kinase; HIS; made in house; host or cells: SF9 insect cells
Nature of the series: TrkB kinase assay (HTRF). The class given is biochemical. Conditions: intracellular domain of HIS-tagged human TrkB. The method, then: TrkB kinase activity is being measured against its ability to phosphorylate synthetic tyrosine residues within a generic polypeptide substrate using homogenous time-resolved fluorescence (HTRF) technology. The intracellular domain of a HIS-tagged human TrkB kinase was expressed in SF9 cells and purified using standard nickel column chromatography. After the kinase is incubated with a biotinylated substrate and ATP for 50 minutes at room temperature, the kinase reaction is stopped by the addition of 60 mM EDTA. The reaction is performed in 384 well microtitre plates and reaction products are detected with the addition of strepavidin-linked and phosphotyrosine-specific antibodies using the Tecan Ultra Evolution Microplate Fluometer after an additional 3-hour incubation at room temperature.
(§1) When tested in the above in-vitro assay the Trk inhibitory activity of the following examples was measured at the following IC50s.
In general terms: In TR-FRET formats the signal depends on donor and acceptor labels being close together.

For a further series, the target named is T2, human TrkA kinase (Homo sapiens, UniProt P04629).
T2 construct: The intracellular domain of a His-tagged human TrkA kinase; His; made in house; host or cells: High Five insect cells
T2 sequence (P04629 440-796 limits assumed): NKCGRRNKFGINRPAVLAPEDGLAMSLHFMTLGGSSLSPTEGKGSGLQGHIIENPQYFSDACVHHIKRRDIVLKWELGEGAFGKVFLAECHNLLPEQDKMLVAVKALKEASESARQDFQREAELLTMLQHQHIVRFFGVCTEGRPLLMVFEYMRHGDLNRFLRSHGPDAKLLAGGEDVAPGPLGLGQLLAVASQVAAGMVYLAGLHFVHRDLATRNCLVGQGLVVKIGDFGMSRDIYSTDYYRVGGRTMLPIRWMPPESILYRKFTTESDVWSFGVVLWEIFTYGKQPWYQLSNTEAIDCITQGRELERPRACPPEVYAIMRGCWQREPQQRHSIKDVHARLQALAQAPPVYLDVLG
Kind of series: TrkA kinase assay (AlphaScreen). The class given is biochemical. The note with it: intracellular domain of His-tagged human TrkA, 20 μM ATP (=Km). The method, then: TrkA kinase activity is measured in 384-well format using AlphaScreen technology. […] The intracellular domain of a His-tagged human TrkA kinase was expressed in High Five cells. The kinase was incubated with ATP and the biotinylated substrate for 15 minutes at room temperature. The reactions were then stopped by the addition of EDTA, anti-phosphotyrosine antibody (PT-100) coated acceptor beads and streptavidin coated donor beads. After 2 h of incubation in the dark at room temperature, the product was detected using a Fusion Alpha instrument. […] Termination/Detection conditions: 25 mM HEPES pH 7.4, 100 mM NaCl, 48 mM EDTA, 0.1% BSA and 20 μg/ml of donor and acceptor beads.
as §1
Background: Alpha assays give light when donor and acceptor beads are brought close together.

T1 sequence (Q16620 455-822 limits assumed): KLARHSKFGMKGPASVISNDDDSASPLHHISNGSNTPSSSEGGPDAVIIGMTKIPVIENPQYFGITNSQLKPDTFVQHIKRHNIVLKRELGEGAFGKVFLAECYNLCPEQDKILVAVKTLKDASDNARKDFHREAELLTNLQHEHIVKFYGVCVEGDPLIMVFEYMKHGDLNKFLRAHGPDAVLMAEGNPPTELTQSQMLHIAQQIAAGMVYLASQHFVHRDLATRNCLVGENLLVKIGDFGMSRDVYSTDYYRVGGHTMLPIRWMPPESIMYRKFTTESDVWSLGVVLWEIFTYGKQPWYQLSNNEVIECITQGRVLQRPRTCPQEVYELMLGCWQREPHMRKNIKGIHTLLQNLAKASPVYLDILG

Turning to `OC[C@H](Nc1ncc(Cl)c(Nc2ccn[nH]2)n1)c1ccc(F)cc1` [(2R)-2-{[5-Chloro-4-(1H-pyrazol-5-ylamino)pyrimidin-2-yl]amino}-2-(4-fluorophenyl)ethanol], the signs of side-effects result in series [1] is on record as “did not show signs of side-effects”. Moreover, the “pain score induced by carrageenan monoarthritis” value in series [1] (given 30 min before induction, within 5 hours after administration, p<0.05) was “significantly reduced”. On to `COC(=O)[C@@]1(O)C[C@H]2O[C@]1(C)n1c3ccccc3c3c4c(c5c6ccccc6n2c5c31)C(=O)NC4` [Compound K252a, K252a], for which, in series [2], the mechanical hypersensitivity entry is listed as “could suppress mechanical hypersensitivity”. As for `OC[C@H](Nc1ncc(F)c(Nc2cc(C3CC3)[nH]n2)n1)c1ccc(F)cc1` [(2R)-2-({4-[(5-Cyclopropyl-1H-pyrazol-3-yl)amino]-5-fluoropyrimidin-2-yl}amino)-2-(4-fluorophenyl)ethanol], the IC50 (as a rule, the concentration at which inhibition is half-maximal) at human TrkB kinase stood at 260 nM; against human TrkA kinase it was 75 nM. Regarding `C[C@H](Nc1ncc(Cl)c(Nc2cc(C3CC3)n[nH]2)n1)c1ccc(F)cc1` [5-Chloro-N^4-(5-cyclopropyl-1H-pyrazol-3-yl)-N^2-[(1S)-1-(4-fluorophenyl)ethyl]pyrimidine-2,4-diamine], the IC50 against human TrkB kinase amounted to 140 nM; against human TrkA kinase, 35 nM. The matching figures for `OCC[C@H](Nc1ncc(Cl)c(Nc2cc(C3CC3)[nH]n2)n1)c1ccc(F)cc1` [(3S)-3-({4-[(5-Cyclopropyl-1H-pyrazol-3-yl)amino]-5-chloropyrimidin-2-yl}amino)-3-(4-fluorophenyl)propan-1-ol]: 220 nM and 39 nM.

The record behind these values is patent publication US20090005396A1, “Use of Pyrazolyl-Pyrimidine Derivatives in the Treatment of Pain” (ASTRAZENECA AB, priority 2005, published 2009).
